# In patent US20260008862A1, “Bispecific Anti-BCMA x Anti-CD3 Antibodies and Uses Thereof” (Regeneron Pharmaceuticals, Inc., priority 2018, published 2026):
# Legend:
# B16/BCMA tumors = assay: Syngenic B16/BCMA tumor model in CD3-humanized mice (Example 16); assay type: in vivo, mouse; details: for Average Tumor Size (mm3) ± SEM on Day 5 / Average Tumor Size (mm3) ± SEM on Day 10 / Average Tumor Size (mm3) ± SEM on Day 14 / Average Tumor Size (mm3) ± SEM on Day 18: B16/BCMA Tumor
# Method: To determine the in vivo efficacy of anti-BCMA×anti-CD3 bispecific antibodies (Abs), a syngenic tumor study was performed in mice expressing human CD3. C57BL/6 mice that express human CD3deg in place of murine CD3deg (CD3-humanized mice) were subcutaneously implanted with either 0.5×10^6 B16 melanoma cells that have been engineered to express full-length human BCMA (B16/BCMA cells) or 1×10^6 MC38 colon carcinoma cells that have been engineered to express full-length human BCMA (MC38/BCMA). […] The mice were administered these Abs twice more on days 4 and 7 for a total of three doses, and tumor growth was assessed throughout the experiment.
# Implantation and measurement of syngenic tumors: C57BL/6 mice that express human CD3deg in place of murine CD3deg (CD3-humanized mice) were subcutaneously implanted with either 0.5×10^6 B16F10 melanoma cells that have been engineered to express full-length human BCMA (B16/BCMA cells) or 1×10^6 MC38 colon carcinoma cells that have been engineered to express full-length human BCMA (MC38/BCMA). […] The mice were administered these Abs twice more on days 4 and 7 for a total of three doses, and tumor growth was assessed throughout the experiment.
# Calculation of syngenic tumor growth and inhibition: In order to determine tumor volume by external caliper, the greatest longitudinal diameter (length in mm) and the greatest transverse diameter (width in mm) were determined. Tumor volumes based on caliper measurements were calculated by the formula: Volume (mm^3)=(length×width^2)/2.
# human BCMA-MMH = target: T1, human BCMA-MMH (Homo sapiens, UniProt Q02223); assay: SPR (Biacore 4000) binding kinetics to human BCMA-MMH; details: 25° C.
# T1 construct: (human BCMA-MMH); myc-myc-hexahistidine (C); made in house
# Method: The CM5 Biacore sensor surface was derivatized by amine coupling with a monoclonal mouse anti-human Fc antibody (GE, #BR-11008-39) to capture purified anti-BCMA mAbs and anti-BCMA×anti-CD3 bispecific mAbs. All Biacore binding studies were performed in a buffer composed of 0.01 M HEPES pH 7.4, 0.15M NaCl, 3 mM EDTA, 0.05% v/v Surfactant P20 (HBS-ET running buffer). […] Antigen samples were then injected over the anti-BCMA and anti-BCMA×anti-CD3 bispecific mAbs captured surfaces at a flow rate of 30 μL/minute. Antibody-reagent association was monitored for 5 minutes while dissociation in HBS-ET running buffer was monitored for 10 minutes. All of the binding kinetics experiments were performed at 25° C. Kinetic association (ka) and dissociation (kd) rate constants were determined by fitting the real-time sensorgrams to a 1:1 binding model using Scrubber 2.0c curve fitting software. Binding dissociation equilibrium constants (KD) and dissociative half-lives (t½) were calculated from the kinetic rate constants as: […]
# T1 sequence (Q02223 with tags, fused parts or gaps): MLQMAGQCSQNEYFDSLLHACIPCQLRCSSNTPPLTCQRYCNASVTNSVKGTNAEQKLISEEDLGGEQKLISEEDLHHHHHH
substance,measurement,setting,value
"REGN5458: anti-BCMA×anti-CD3 bispecific antibody: BCMA HCVR of mAb21581 (SEQ 66), CD3 HCVR of mAb7221G (SEQ 90), common LCVR SEQ 82",Average Tumor Size (mm3) ± SEM on Day 5,B16/BCMA tumors; 0.04 mg/kg,3.3 ± 2.2 mm3
same,Average Tumor Size (mm3) ± SEM on Day 10,B16/BCMA tumors; 0.04 mg/kg,15.4 ± 12.5 mm3
same,Average Tumor Size (mm3) ± SEM on Day 14,B16/BCMA tumors; 0.04 mg/kg,81.4 ± 49.2 mm3
same,Average Tumor Size (mm3) ± SEM on Day 18,B16/BCMA tumors; 0.04 mg/kg,127.2 ± 63.9 mm3
same,Average Tumor Size (mm3) ± SEM on Day 5,B16/BCMA tumors; 0.4 mg/kg,0.0 ± 0.0 mm3
same,Average Tumor Size (mm3) ± SEM on Day 10,B16/BCMA tumors; 0.4 mg/kg,0.0 ± 0.0 mm3
same,Average Tumor Size (mm3) ± SEM on Day 14,B16/BCMA tumors; 0.4 mg/kg,8.1 ± 4.4 mm3
same,Average Tumor Size (mm3) ± SEM on Day 18,B16/BCMA tumors; 0.4 mg/kg,47.1 ± 17.0 mm3
same,tumor growth (in words),"B16/BCMA tumors; B16/BCMA, 0.4 or 0.04 mg/kg, three doses",suppress the growth of both tumor lines in a dose-dependent manner
"REGN5459: anti-BCMA×anti-CD3 bispecific antibody: BCMA HCVR of mAb21581 (SEQ 66), CD3 HCVR of mAb7221G20 (SEQ 98), common LCVR SEQ 82",ka,human BCMA-MMH,730000 M⁻¹ s⁻¹
same,kd,human BCMA-MMH,0.00101 s⁻¹
